# Reference: patent US9447038B2 (SANOFI, priority 2012, dated 2016)
# Where a name gives a salt, the structure may show the parent alone.
# Biological target: human CXCR3-A receptor (Homo sapiens (Human), UniProt P49682)
# Assay: 125I-CXCL10 competition radioligand binding assay;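 also: One-hour incubation of membranes with tracer, bound radioligand separated by glass fibre filtration, IC50 derived from four-parameter nonlinear fit of competition curves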
# Conditions: displacement of 125I-CXCL10 from membranes of CHO cells expressing human recombinant CXCR3-A
# Sequence of human CXCR3-A receptor (P49682 whole entry): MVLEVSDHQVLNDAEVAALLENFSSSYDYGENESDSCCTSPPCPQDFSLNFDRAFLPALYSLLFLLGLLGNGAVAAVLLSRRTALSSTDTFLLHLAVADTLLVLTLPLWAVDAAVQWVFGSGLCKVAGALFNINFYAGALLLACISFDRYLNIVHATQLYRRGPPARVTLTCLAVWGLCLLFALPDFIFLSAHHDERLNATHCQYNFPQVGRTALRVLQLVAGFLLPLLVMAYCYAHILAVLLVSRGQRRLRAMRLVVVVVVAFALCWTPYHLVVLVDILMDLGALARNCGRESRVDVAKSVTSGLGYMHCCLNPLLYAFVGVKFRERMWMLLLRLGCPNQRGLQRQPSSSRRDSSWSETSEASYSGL
row,IC50,SMILES
1,69 nM,"Cc1cc(CN(CC2CCCC2)[C@@H](CC(=O)O)c2ccc(Cl)c(F)c2)ccc1OCCN1C(=O)CN(C)C1=O [Example 32, (S)-3-(4-Chloro-3-fluoro-phenyl)-3-(cyclopentylmethyl-{3-methyl-4-[2-(3-methyl-2,5-dioxo-imidazolidin-1-yl)-ethoxy]-benzyl}-amino)-propionic acid]"
2,464 nM,"CCc1cc(CN(CC2CCCC2)C(CC(=O)O)c2ccc(Cl)c(Cl)c2)ccc1OCCN1C(=O)CCC1=O (stereo not drawn) [Example 100, 3-(Cyclopentylmethyl-{4-[2-(2,5-dioxo-pyrrolidin-1-yl)-ethoxy]-3-ethyl-benzyl}-amino)-3-(3,4-dichloro-phenyl)-propionic acid]"
3,407 nM,"COc1cc(CN(CC2CCCCC2)C2c3ccc(Cl)cc3CC2C(=O)O)ccc1OCCN1C(=O)CCC1=O (stereo not drawn) [Example 169, 5-Chloro-1-(cyclohexylmethyl-{4-[2-(2,5-dioxo-pyrrolidin-1-yl)-ethoxy]-3-methoxy-benzyl}-amino)-indan-2-carboxylic acid]"
4,211 nM,"Cc1cc(CN(CC2CC2)C(CC(=O)O)c2ccc3c(c2)CCO3)ccc1CCCN1C(=O)CCC1=O (stereo not drawn) [Example 142, 3-(Cyclopropylmethyl-{4-[3-(2,5-dioxo-pyrrolidin-1-yl)-propyl]-3-methyl-benzyl}-amino)-3-(2,3-dihydro-benzofuran-5-yl)-propionic acid]"
5,71 nM,"COc1cc(CN(CC2CCCC2)C(CC(=O)O)c2ccc(Cl)cc2)ccc1OCCN1C(=O)CCC1=O (stereo not drawn) [Example 39, 3-(4-Chloro-phenyl)-3-(cyclopentylmethyl-{4-[2-(2,5-dioxo-pyrrolidin-1-yl)-ethoxy]-3-methoxy-benzyl}-amino)-propionic acid]"
6,130 nM,"CCc1cc(CN(CC(C)C)C(CC(=O)O)c2ccc(Cl)c(Cl)c2)ccc1OCCN1C(=O)CCC1=O (stereo not drawn) [Example 98, 3-(3,4-Dichloro-phenyl)-3-({4-[2-(2,5-dioxo-pyrrolidin-1-yl)-ethoxy]-3-ethyl-benzyl}-isobutyl-amino)-propionic acid]"
7,119 nM,"Cc1cc(CN(CC2CCCC2)C(CC(=O)O)c2ccc(Cl)c(Cl)c2)ccc1OCCN1C(=O)CCC1=O (stereo not drawn) [Example 82, 3-(Cyclopentylmethyl-{4-[2-(2,5-dioxo-pyrrolidin-1-yl)-ethoxy]-3-methyl-benzyl}-amino)-3-(3,4-dichloro-phenyl)-propionic acid]"
8,61 nM,"COc1cc(CN(CC2CCCC2)C(CC(=O)O)c2ccc(Cl)c(Cl)c2)ccc1OCCN1C(=O)CCC1=O (stereo not drawn) [Example 49, 3-(Cyclopentylmethyl-{4-[2-(2,5-dioxo-pyrrolidin-1-yl)-ethoxy]-3-methoxy-benzyl}-amino)-3-(3,4-dichloro-phenyl)-propionic acid]"
9,810 nM,"CN1CC(=O)N(CCOc2ccc(CN(CC3CCCCC3)[C@H](CC(=O)O)c3ccc(Cl)cc3)cc2Cl)C1=O [Example 202, (R)-3-({3-Chloro-4-[2-(3-methyl-2,5-dioxo-imidazolidin-1-yl)-ethoxy]-benzyl}-cyclohexylmethyl-amino)-3-(4-chloro-phenyl)-propionic acid]"
10,342 nM,"CCCN(Cc1ccc(OCCN2C(=O)CCC2=O)c(F)c1)C(c1ccc(Cl)cc1)C(C)C(=O)O (stereo not drawn) [Example 195, 3-(4-Chloro-phenyl)-3-({4-[2-(2,5-dioxo-pyrrolidin-1-yl)-ethoxy]-3-fluoro-benzyl}-propyl-amino)-2-methyl-propionic acid]"
11,170 nM,"CCCN(Cc1ccc(OCCN2C(=O)CCC2=O)c(Cl)c1)C(CC(=O)O)c1ccc(Cl)cc1 (stereo not drawn) [Example 103, 3-({3-Chloro-4-[2-(2,5-dioxo-pyrrolidin-1-yl)-ethoxy]-benzyl}-propyl-amino)-3-(4-chloro-phenyl)-propionic acid]"
12,186 nM,"O=C(O)CC(c1ccc(Cl)c(Cl)c1)N(Cc1ccc(OCCN2C(=O)CCC2=O)c(F)c1)CC1CCCC1 (stereo not drawn) [Example 65, 3-(Cyclopentylmethyl-{4-[2-(2,5-dioxo-pyrrolidin-1-yl)-ethoxy]-3-fluoro-benzyl}-amino)-3-(3,4-dichloro-phenyl)-propionic acid]"
13,503 nM,"CCCN(Cc1ccc(OCCN2C(=O)CCC2=O)c(F)c1)C(CC(=O)O)c1ccc(Cl)c(Cl)c1 (stereo not drawn) [Example 62, 3-(3,4-Dichloro-phenyl)-3-({4-[2-(2,5-dioxo-pyrrolidin-1-yl)-ethoxy]-3-fluoro-benzyl}-propyl-amino)-propionic acid]"
14,144 nM,"CCc1cc(CN(CC2CCCCC2)C(CC(=O)O)c2ccc(Cl)c(F)c2)ccc1OCCN1C(=O)CCC1=O (stereo not drawn) [Example 95, 3-(4-Chloro-3-fluoro-phenyl)-3-(cyclohexylmethyl-{4-[2-(2,5-dioxo-pyrrolidin-1-yl)-ethoxy]-3-ethyl-benzyl}-amino)-propionic acid]"
15,75 nM,"COc1cc(CN(Cc2ccc(F)cc2)C(CC(=O)O)c2ccc(Cl)cc2)ccc1OCCN1C(=O)CCC1=O (stereo not drawn) [Example 165, 3-(4-Chloro-phenyl)-3-[{4-[2-(2,5-dioxo-pyrrolidin-1-yl)-ethoxy]-3-methoxy-benzyl}-(4-fluoro-benzyl)-amino]-propionic acid; hydrochloride]"
16,786 nM,"COc1cc(CN(CC(C)C)[C@@H](C(=O)O)c2ccc(Cl)c(Cl)c2)ccc1OCCN1C(=O)CCC1=O [Example 110, (R)-(3,4-Dichloro-phenyl)-({4-[2-(2,5-dioxo-pyrrolidin-1-yl)-ethoxy]-3-methoxy-benzyl}-isobutyl-amino)-acetic acid]"
17,133 nM,"CCCCN(Cc1ccc(OCCN2C(=O)CCC2=O)c(C)c1)C(CC(=O)O)c1ccc(Cl)cc1Cl (stereo not drawn) [Example 164, 3-(Butyl-{4-[2-(2,5-dioxo-pyrrolidin-1-yl)-ethoxy]-3-methyl-benzyl}-amino)-3-(2,4-dichloro-phenyl)-propionic acid]"
18,635 nM,"CCN(Cc1ccc(OCCn2c(=O)ccn(C)c2=O)c(OC)c1)C(c1ccc(Cl)cc1)C(C)C(=O)O (stereo not drawn) [Example 153, 3-(4-Chloro-phenyl)-3-(ethyl-{3-methoxy-4-[2-(3-methyl-2,6-dioxo-3,6-dihydro-2H-pyrimidin-1-yl)-ethoxy]-benzyl}-amino)-2-methyl-propionic acid]"
19,266 nM,"CCN(Cc1ccc(OCCN2C(=O)CCC2=O)c(C)c1)C(c1ccc(Cl)cc1)C(C)C(=O)O (stereo not drawn) [Example 175, 3-(4-Chloro-phenyl)-3-({4-[2-(2,5-dioxo-pyrrolidin-1-yl)-ethoxy]-3-methyl-benzyl}-ethyl-amino)-2-methyl-propionic acid]"
20,86 nM,"Cc1cc(CN(CC2CCCC2)[C@H](CC(=O)O)c2ccc(Cl)c(F)c2)ccc1OCCN1C(=O)CN(C)C1=O [Example 33, (R)-3-(4-Chloro-3-fluoro-phenyl)-3-(cyclopentylmethyl-{3-methyl-4-[2-(3-methyl-2,5-dioxo-imidazolidin-1-yl)-ethoxy]-benzyl}-amino)-propionic acid]"
21,30 nM,"COc1cc(CN(CC2CC2)C(CC(=O)O)c2ccc(Cl)c(Cl)c2)ccc1OCCn1c(=O)ccn(C)c1=O (stereo not drawn) [Example 124, 3-(Cyclopropylmethyl-{3-methoxy-4-[2-(3-methyl-2,6-dioxo-3,6-dihydro-2H-pyrimidin-1-yl)-ethoxy]-benzyl}-amino)-3-(3,4-dichloro-phenyl)-propionic acid]"
22,754 nM,"COc1cc(CN(C)C(c2ccc(Cl)cc2)C(C)C(=O)O)ccc1OCCn1c(=O)ccn(C)c1=O (stereo not drawn) [Example 152, 3-(4-Chloro-phenyl)-3-({3-methoxy-4-[2-(3-methyl-2,6-dioxo-3,6-dihydro-2H-pyrimidin-1-yl)-ethoxy]-benzyl}-methyl-amino)-2-methyl-propionic acid]"
23,116 nM,"CCCCN(Cc1ccc(CCCN2C(=O)CCC2=O)c(OC)c1)C(CC(=O)O)c1ccc(Cl)cc1 (stereo not drawn) [Example 135, 3-(Butyl-{4-[3-(2,5-dioxo-pyrrolidin-1-yl)-propyl]-3-methoxy-benzyl}-amino)-3-(4-chloro-phenyl)-propionic acid]"
24,39 nM,"Cc1cc(CN(CC2CC2)[C@@H](CC(=O)O)c2ccc(Cl)c(Cl)c2)ccc1OCCN1C(=O)CCC1=O [Example 26, (S)-3-(Cyclopropylmethyl-{4-[2-(2,5-dioxo-pyrrolidin-1-yl)-ethoxy]-3-methyl-benzyl}-amino)-3-(3,4-dichloro-phenyl)-propionic acid]"
25,54 nM,"COc1cc(CN(CC2CCCC2)C(CC(=O)O)c2ccc3c(c2)CCO3)ccc1CCCN1C(=O)CCC1=O (stereo not drawn) [Example 139, 3-(Cyclopentylmethyl-{4-[3-(2,5-dioxo-pyrrolidin-1-yl)-propyl]-3-methoxy-benzyl}-amino)-3-(2,3-dihydro-benzofuran-5-yl)-propionic acid]"
26,192 nM,"COc1cc(CN(CC2CC2)C(CC(=O)O)c2ccc(Cl)cc2)ccc1CCCN1C(=O)CCC1=O (stereo not drawn) [Example 132, 3-(4-Chloro-phenyl)-3-(cyclopropylmethyl-{4-[3-(2,5-dioxo-pyrrolidin-1-yl)-propyl]-3-methoxy-benzyl}-amino)-propionic acid]"
27,507 nM,"COc1cc(CN(CC2CCCCC2)C(CC(=O)O)c2ccc(C(F)(F)F)cc2)ccc1OCCN1C(=O)CCC1=O (stereo not drawn) [Example 181, 3-(Cyclohexylmethyl-{4-[2-(2,5-dioxo-pyrrolidin-1-yl)-ethoxy]-3-methoxy-benzyl}-amino)-3-(4-trifluoromethyl-phenyl)-propionic acid]"
